Assay results from ChEMBL document CHEMBL5149962, “Targeting KRAS mutant cancers by preventing signaling transduction in the MAPK pathway” (Eur J Med Chem, 2021).
Where a SMILES comes first, the peptide text is derived from it. Bridges are numbered along the chain shown (N, C = ends). [ ]: non-standard residue; d: D form. S5 = C=CCCC[C@](C)(N)C(=O)O

Key:
GTPase KRas [1] = molecular target: T1, GTPase KRas (Homo sapiens, UniProt P01116, G12V); assay: Binding affinity to GDP-bound KRAS G12V RAS mutant (unknown origin)
T1 sequence (P01116 whole entry G12V): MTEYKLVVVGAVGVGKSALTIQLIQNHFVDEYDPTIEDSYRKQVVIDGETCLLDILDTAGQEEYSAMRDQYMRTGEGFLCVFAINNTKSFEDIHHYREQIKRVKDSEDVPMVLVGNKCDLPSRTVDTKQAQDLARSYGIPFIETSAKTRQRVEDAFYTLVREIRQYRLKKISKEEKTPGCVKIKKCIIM

GTPase HRas [2] = molecular target: T2, GTPase HRas (Homo sapiens, UniProt P01112); assay: Inhibition of human p21 h-RAS assessed as reduction in C-Cdc25 stimulated nucleotide exchange by luminescence spectrometer based analysis
T2 sequence (P01112 whole entry): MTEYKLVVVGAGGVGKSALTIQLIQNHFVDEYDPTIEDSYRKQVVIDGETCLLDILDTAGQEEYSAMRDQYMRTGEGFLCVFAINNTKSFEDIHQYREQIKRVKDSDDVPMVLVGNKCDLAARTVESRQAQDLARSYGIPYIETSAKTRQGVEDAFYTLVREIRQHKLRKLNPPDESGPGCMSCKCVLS

GTPase KRas [3] = molecular target: GTPase KRas (Homo sapiens, UniProt P01116); assay: Binding affinity to KRAS (unknown origin) assessed as dissociation constant
Chain of GTPase KRas (Homo sapiens, UniProt P01116) (P01116 whole entry): as the sequence (P01116 whole entry G12V) above, with V12G counted along it

[4] = Binding affinity to human FPTase assessed as inhibition constant
[5] = Lipophilicity, logP of the compound; type: physicochemical; conditions: octanol/water
HCT-116 [6] = assay: Antiproliferative activity against human HCT-116 cells harboring KRAS G13D mutant assessed as cell growth inhibition measured after 96 hrs by MTT assay; type: functional
[7] = Inhibition of human N-terminal His-tagged recombinant wild-type KRAS (1 to 156 residues) expressed in Escherichia coli BL21 (DE3)/SAH-SOS1A by fluorescence based polarization assay
[8] = molecular target: Protein farnesyltransferase subunit beta (Homo sapiens, UniProt P49356); assay: Displacement of M [3H] farnesyl diphosphate from human PFTase expressed in Escherichia coli
Chain of Protein farnesyltransferase subunit beta (P49356 whole entry): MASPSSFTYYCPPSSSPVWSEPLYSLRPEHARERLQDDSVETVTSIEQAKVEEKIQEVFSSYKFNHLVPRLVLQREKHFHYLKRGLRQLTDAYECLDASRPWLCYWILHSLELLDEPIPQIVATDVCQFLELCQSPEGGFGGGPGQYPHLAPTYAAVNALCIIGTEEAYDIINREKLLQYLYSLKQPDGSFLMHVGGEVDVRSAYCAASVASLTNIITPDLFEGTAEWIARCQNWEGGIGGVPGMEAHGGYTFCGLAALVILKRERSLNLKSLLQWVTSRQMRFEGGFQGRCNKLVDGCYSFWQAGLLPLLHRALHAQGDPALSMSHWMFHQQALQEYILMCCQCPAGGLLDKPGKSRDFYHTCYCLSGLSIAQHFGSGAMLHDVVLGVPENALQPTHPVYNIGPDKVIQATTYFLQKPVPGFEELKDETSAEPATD

[9] = Inhibition of GDP-tagged human RAS (1 to 166 residue) incubated for 20 mins by using Centricon-10 micro concentrators analysis
GTPase KRas [10] = molecular target: GTPase KRas (Homo sapiens, UniProt P01116, G12C); assay: Inhibition of KRAS G12C mutant (unknown origin)
Chain of GTPase KRas (Homo sapiens, UniProt P01116, G12C) (P01116 whole entry G12C): as the sequence (P01116 whole entry G12V) above, with V12C counted along it

[11] = Inhibition of HRAS […] mutant (unknown origin) expressed in mouse NIH3T3 cells assessed as inhibition of post-translational modification processing; type: cell-based, Homo sapiens
GTPase KRas [12] = molecular target: T1, GTPase KRas; assay: Inhibition of KRAS G12V mutant (unknown origin) expressed in mouse NIH3T3 cells assessed as inhibition of post-translational modification processing; type: cell-based
HT-1080 = assay: Antitumor activity against human HT-1080 cells xenografted in BALB/c nude mouse assessed as reduction in tumor size at 100 mg/kg measured twice a week for 21 days relative to control; type: functional; set-up: scale not given: the % may be the effect or the level left; conditions: time 21 day
HCT-116 [13] = assay: Antitumor activity against human HCT-116 cells xenografted in BALB/c nude mouse assessed as reduction in tumor size at 100 mg/kg measured twice a week for 21 days relative to control; type: functional; set-up: scale not given: the % may be the effect or the level left; conditions: time 21 day
NCI-H929 = assay: Induction of apoptosis in human NCI-H929 cells harboring NRAS mutant assessed as reduction in cell viability measured after 48 hrs by Annexin V-FITC staining based flow cytometry analysis; type: functional
[14] = Induction of apoptosis in human U266B cells harboring wild type RAS mutant assessed as reduction in cell viability measured after 48 hrs by Annexin V-FITC staining based flow cytometry analysis; type: functional
RPMI-8226 = assay: Induction of apoptosis in human RPMI-8226 cells harboring KRAS mutant assessed as reduction in cell viability measured after 48 hrs by Annexin V-FITC staining based flow cytometry analysis; type: functional; conditions: RPMI-8226, 48 h
[15] = Antiproliferative activity against human Hs578Bst cells harboring HRAS mutant incubated for 48 hrs by MTT assay; type: functional, cell-based
MCF-10A = assay: Antiproliferative activity against human MCF-10A cells harboring HRAS mutant incubated for 48 hrs by MTT assay; type: functional, cell-based
MDA-MB-231 = assay: Antiproliferative activity against human MDA-MB-231 cells harboring HRAS mutant incubated for 48 hrs by MTT assay; type: functional, cell-based; conditions: MDA-MB-231, 48 h
SW480 = assay: Antiproliferative activity against human SW480 cells assessed as cell growth inhibition by CCK-8 assay relative to control; type: functional
[16] = Binding affinity to recombinant human KRAS (1 to 169 residues) expressed in Escherichia coli - recombinant human SOS1 (560 to 1049 residues) expressed in Escherichia coli assessed as dissociation constant
[17] = Antiproliferative activity against human cancer cell lines harboring KRAS mutation assessed as reduction in cell viability; type: functional, cell-based
HT-29 [18] = assay: Cytotoxicity against human HT-29 cells assessed as cell growth inhibition after 72 hrs in presence of doxorubicin by MTT assay; type: functional, cell-based; conditions: HT-29, 72 h
A549 [19] = assay: Cytotoxicity against human A549 cells assessed as cell growth inhibition after 72 hrs by MTT assay; type: functional, cell-based; conditions: A549, 72 h
[20] = Antiproliferative activity against human cancer cell lines harboring wild type RAS mutation assessed as reduction in cell viability; type: functional, cell-based
HT-29 [21] = assay: Cytotoxicity against human HT-29 cells assessed as cell growth inhibition after 72 hrs by MTT assay; type: functional, cell-based; conditions: HT-29, 72 h
GTPase HRas [22] = molecular target: T2, GTPase HRas; assay: Binding affinity to HRAS (unknown origin) assessed as inhibition constant
A549 [23] = assay: Cytotoxicity against human A549 cells assessed as cell growth inhibition after 72 hrs in presence of doxorubicin by MTT assay; type: functional, cell-based; conditions: A549, 72 h
GTPase NRas = GTPase NRas (Homo sapiens, UniProt P01111); assay: Binding affinity to NRAS (unknown origin) assessed as inhibition constant
Chain of GTPase NRas (P01111 whole entry): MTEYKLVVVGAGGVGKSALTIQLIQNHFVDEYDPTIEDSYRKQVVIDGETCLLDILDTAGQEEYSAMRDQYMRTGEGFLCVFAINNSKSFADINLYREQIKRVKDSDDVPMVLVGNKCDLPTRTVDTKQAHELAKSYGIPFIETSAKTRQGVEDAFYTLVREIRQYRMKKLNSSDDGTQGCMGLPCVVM

[24] = AUC in cynomolgus monkey; type: ADME, Macaca fascicularis; conditions: in vivo
[25] = Cmax in cynomolgus monkey; type: ADME, Macaca fascicularis; conditions: in vivo
Capan-2 = assay: Antiproliferative activity against human Capan-2 cells harboring KRAS 12 mutation assessed as inhibition of cell growth incubated for 4 to 7 days; type: functional, cell-based
SU.86.86 = assay: Antiproliferative activity against human SU-86-86 cells harboring KRAS 12 mutation assessed as inhibition of cell growth incubated for 4 to 7 days; type: functional, cell-based
[26] = Competitive inhibition of human FPTase using K-RasB peptide as a substrate assessed as inhibition constant by Scintillation proximity assay
[27] = Inhibition of human FPTase using K-RasB peptide as a substrate assessed as inhibition of substrate farnesylation
HT1197 = assay: Antiproliferative activity against human HT1197 cells harboring HRAS 61 mutation assessed as inhibition of cell growth incubated for 4 to 7 days; type: functional, cell-based
NCI-H441 = assay: Antiproliferative activity against human NCI-H441 cells harboring KRAS 12 mutation assessed as inhibition of cell growth incubated for 4 to 7 days; type: functional, cell-based

O=S(=O)(c1ccc(NO)cc1)N(CCOc1ccc2ccccc2c1)[C@@H]1O[C@H](CO)[C@@H](O)[C@H](O)[C@H]1O
IC50 (GTPase KRas [1]): 0.7 µM

O=S(=O)(NCCOc1ccc2ccccc2c1)c1ccc(NO)cc1
IC50 (GTPase HRas [2]): 56 µM | IC50 (GTPase KRas [1]): 0.5 µM

Cc1[nH]c2cc(Cl)cc(Cl)c2c1CCN
Kd (GTPase KRas [3]): 1100 µM

CC(C)=CCC/C(C)=C/CC/C(C)=C/C(O)P(=O)(O)O (stereo not given)
Ki [4]: 0.0052 µM

C=C1CC[C@@H]2[C@]3(C)COC(c4cccc(Br)c4)O[C@@H]3CC[C@@]2(C)[C@@H]1C/C=C1/C(=O)OC[C@H]1O (stereo not given in full)
logP [5]: 2.6

C=C1CC[C@@H]2[C@]3(C)COC(c4ccc(F)c(Br)c4)O[C@@H]3CC[C@@]2(C)[C@@H]1C/C=C1/C(=O)OC[C@H]1O (stereo not given in full)
logP [5]: 2.6 | GI50 (HCT-116 [6]): 4 µM

CC[C@H](C)[C@H](NC(=O)CNC(=O)[C@H](Cc1ccccc1)NC(=O)[C@@H](N)Cc1ccccc1)C(=O)N[C@@H](Cc1ccc(O)cc1)C(=O)N[C@@H](CC(C)C)C(=O)N[C@H](C(=O)N[C@@H](CC(N)=O)C(=O)N[C@@]1(C)CCC/C=C\CCC[C@@](C)(C(=O)N[C@@H](CCC(=O)O)C(=O)NCC(=O)N[C@@H](CC(N)=O)C(=O)O)NC(=O)[C@H]([C@@H](C)O)NC(=O)[C@H](CCCCN)NC(=O)[C@H](CC(C)C)NC1=O)[C@@H](C)O
EC50 [7]: 0.1 µM

CC[C@@H](C)[C@@H](CO[C@@H](Cc1ccccc1)C(=O)CC(CCS(C)(=O)=O)C(=O)O)NC[C@@H](N)CS (stereo not given in full)
IC50 [8]: 0.0018 µM

O=S(=O)(c1ccc(NO)cc1)N1CCC(=C2c3cc(Cl)ccc3CCc3cccnc32)CC1
IC50 [9]: 0.9 µM

Nc1nc2c(ncn2CCN(CCOc2ccc3ccccc3c2)S(=O)(=O)c2ccc(NO)cc2)c(=O)[nH]1
IC50 (GTPase KRas [1]): 0.5 µM

C=CC(=O)N1CCN(c2nc(NCCC(=O)N(C)C)nc3c(F)c(-c4cc(O)cc5ccccc45)c(Cl)cc23)CC1
IC50 (GTPase KRas [10]): 0.726 µM

C=C1CC[C@@H]2[C@]3(C)COC(c4ccccc4Br)O[C@@H]3CC[C@@]2(C)[C@@H]1C/C=C1/C(=O)OC[C@H]1O (stereo not given in full)
logP [5]: 2.6 | GI50 (HCT-116 [6]): 3.1 µM

CSCC[C@H](CC(=O)[C@H](/C=C\[C@@H](/C=C/[C@@H](N)CS)C(C)C)Cc1ccccc1)C(=O)O
IC50 [11]: 0.5 µM | IC50 (GTPase KRas [12]): 25 µM

COC(=O)[C@H](CCSC)CC(=O)[C@H](/C=C\[C@@H](/C=C/[C@@H](N)CS)C(C)C)Cc1ccccc1
Activity (HT-1080): 40% | Activity (HCT-116 [13]): 20%

COC(=O)[C@H](CCSC)NC(=O)c1ccc(NC[C@H](N)CS)cc1-c1ccccc1
IC50 (NCI-H929): 12.7 µM | IC50 [14]: 25.4 µM | IC50 (RPMI-8226): 41.6 µM | IC50 [15]: 14.9 µM | IC50 (MCF-10A): 6.83 µM | IC50 (MDA-MB-231): 29.3 µM

CC[C@H](C)[C@H](NC(=O)CNC(=O)[C@H](Cc1ccccc1)NC(=O)[C@@H](N)Cc1ccccc1)C(=O)N[C@@]1(C)CCC/C=C\CCC[C@@](C)(C(=O)N[C@@H](CC(C)C)C(=O)N[C@@H](CCCCN)C(=O)N[C@H](C(=O)N[C@@H](CCC(=O)O)C(=O)N[C@@H](CCC(=O)O)C(=O)NCC(=O)N[C@@H](CC(N)=O)C(=O)O)[C@@H](C)O)NC(=O)[C@H](CC(N)=O)NC(=O)[C@H]([C@@H](C)O)NC(=O)[C@H](CC(C)C)NC1=O
EC50 [7]: 0.1 µM

[O-][S+](NC[C@@H]1CC2O[C@H](OCc3ccccc3)[C@@H](OCc3ccccc3)C2O1)c1ccc(NO)cc1 (stereo not given in full)
IC50 (GTPase HRas [2]): 35.5 µM

CC[C@H](C)[C@H](NC(=O)[C@]1(C)CCC/C=C\CCC[C@](C)(NC(=O)CNC(=O)[C@H](Cc2ccccc2)NC(=O)[C@@H](N)Cc2ccccc2)C(=O)N[C@@H](Cc2ccc(O)cc2)C(=O)N[C@@H](CC(C)C)C(=O)N[C@@H]([C@@H](C)O)C(=O)N1)C(=O)N[C@@H](CC(C)C)C(=O)N[C@@H](CCCCN)C(=O)N[C@H](C(=O)N[C@@H](CCC(=O)O)C(=O)N[C@@H](CCC(=O)O)C(=O)NCC(=O)N[C@@H](CC(N)=O)C(=O)O)[C@@H](C)O
EC50 [7]: 0.1 µM

Cc1ccc(NC(=S)NNc2c([N+](=O)[O-])cc(C(F)(F)F)cc2[N+](=O)[O-])cc1Cl
inhibition (INH) (SW480): 66.3%

CC[C@H](C)[C@@H]1NC(=O)CNC(=O)[C@@](C)(NC(=O)[C@@H](N)Cc2ccccc2)CCC/C=C\CCC[C@@](C)(C(=O)N[C@H](C(=O)N[C@@H](C)C(=O)N[C@H](C(=O)N[C@@H](CC(C)C)C(=O)N[C@@H](CCCCN)C(=O)N[C@H](C(=O)N[C@@H](CCC(=O)O)C(=O)N[C@@H](CCC(=O)O)C(=O)NCC(=O)N[C@@H](CC(N)=O)C(=O)O)[C@@H](C)O)[C@@H](C)CC)[C@@H](C)O)NC(=O)[C@H](Cc2ccc(O)cc2)NC1=O (H-F[S5]GIY[S5]TAILKTEEGN-OH; staple (Z) 2-6)
EC50 [7]: 0.1 µM

C=C1CC[C@@H]2[C@](C)(CO)[C@H](O)CC[C@@]2(C)[C@@H]1C/C=C1/C(=O)OC[C@H]1O [ANDROGRAPHOLIDE]
GI50 (HCT-116 [6]): 4.5 µM

CNCc1ccccc1-c1csc([C@@H](C)Nc2nc(C)nc3cc(OC)c(OC)cc23)c1 [BAY-293]
Kd [16]: 0.036 µM

c1ccc2[nH]cnc2c1 [BENZIMIDAZOLE]
Kd (GTPase KRas [3]): 1500 µM

N#Cc1ccc(Cn2cncc2CN2CCN(c3cccc(Cl)c3)C(=O)C2)cc1 [L-778123 FREE BASE]
IC50 [17]: 2.28 µM | IC50 (HT-29 [18]): 1.52 µM | IC50 (A549 [19]): 101 µM | IC50 [20]: 0.07 µM | IC50 (HT-29 [21]): 126 µM | Ki (GTPase HRas [22]): 0.0016 µM | IC50 (A549 [23]): 1.72 µM | Ki (GTPase NRas): 0.0003 µM

NC(=O)N1CCC(CC(=O)N2CCC([C@H]3c4ncc(Br)cc4CCc4cc(Cl)cc(Br)c43)CC2)CC1 [LONAFARNIB]
AUC [24]: 14700 ng·h/mL | Cmax [25]: 1900 nM

CNC(=O)c1cc(Oc2ccc(NC(=O)Nc3ccc(Cl)c(C(F)(F)F)c3)cc2)ccn1 [SORAFENIB]
inhibition (INH) (SW480): 83.8%

Cn1cncc1[C@@](N)(c1ccc(Cl)cc1)c1ccc2c(c1)c(-c1cccc(Cl)c1)cc(=O)n2C [TIPIFARNIB]
IC50 (Capan-2): 0.016 µM | IC50 (SU.86.86): 0.0095 µM | Ki [26]: 0.0005 µM | IC50 [27]: 0.0079 µM | IC50 (HT1197): 0.0017 µM | IC50 (NCI-H441): 0.036 µM
